Results on two molecules are retold here after patent EP3586875A1, “STABILIZATION OF POLYSORBATE” (Lonza Limited, priority 2018, dated 2020).

Common to all, as to assay type: physicochemical
A short description of data set [1]: LC-UV-MS quantification of free fatty acids in polysorbate solutions after storage. On the procedure:
(§1) Studies were performed to investigate oxidative degradation of PS20 and PS80 in aqueous solutions containing the antioxidants BHT or BHA. The following solutions were tested: • 1) polysorbate solutions of 10% (w/v) ± 0.02% (w/v) of the respective antioxidant, • 2) polysorbate solutions of 0.1% (w/v) ± 0.0002% (w/v) of the respective antioxidant. For solution 1), stabilized (containing the antioxidant BHT or BHA at a concentration of 0.2% (w/w)) and unstabilized (not containing any antioxidant) neat PS was diluted to a concentration of 10% (w/v) by adding 5 g of PS into a 50 mL volumetric flask and filling up to the 50 mL mark with H2O. The solution was stirred with a magnetic stirrer for about 20 minutes to ensure complete dissolution of PS. 5 ml of each solution was aliquoted into 6R vials. Each vial was closed with a stopper and a cap.
(§2) Throughout the experiments, the solutions were subjected to three different conditions as follows: "T0": stored at -20°C for 7 weeks, "H2O2": stored at 25°C and 60% humidity for 7 weeks in the presence of hydrogen peroxide (H2O2) at a concentration of 10% (w/w) based on the molar ratio of used antioxidant. "Air": stored at 40°C and 75% humidity for 7 weeks and exposed to air (needle in vial stopper for free air exchange during incubation).
LC-UV-MS was used to quantify FFA levels in solutions of 10% PS (w/v) ± 0.02% (w/v) of the antioxidants BHT or BHA. The FFAs lauric acid, myristic acid and palmitic acid were quantified for PS20-containing solutions and palmitic acid, stearic acid and oleic acid were quantified for PS80-containing solutions. The RL for all FFAs was 50000 ppb.
LC-UV-MS conditions were applied as in Example 2. Quantification of the FFAs was achieved by integration of the LC-MS signals at their corresponding ion trace (lauric acid = m/z 199.3; myristic acid = m/z 227.3; palmitic acid = m/z 255.3; stearic acid = m/z 283.3; oleic acid = m/z 281.3) in negative mode and using a calibration curve obtained from the integrated LC-MS signals of each corresponding ion trace of the external reference of lauric acid, myrisitic acid, palmitic acid, stearic acid and oleic acid. FFA reference standards in aqueous solutions at concentrations from 0.5 ppm to 5 ppm were prepared. All reference standard solutions were directly analyzed by LC-UV-MS.

Data set [2] can be described thus: HPLC-FMA (fluorescence micelle assay), polysorbate concentration after storage. As to conditions: diluted to target 0.04% PS (w/v). On the procedure:
as §1
For solution 2), 50 micro L of the 10% (w/v) PS solutions were transferred into 6R vials and filled up with 4.95 mL H2O to a final concentration of 0.1% (w/v) PS.
as §2
HPLC FMA was used to measure the concentration of polysorbate in solutions of 10% PS20 ± 0.02% (w/v) of the antioxidants BHT or BHA, solutions of 10% PS80 (w/v) ± 0.02% (w/v) of the antioxidants BHT or BHA, and solutions of 0.1% PS80 (w/v) ± 0.0002% (w/v) of the antioxidants BHT or BHA. Samples were diluted to the target concentration of 0.04% PS (w/v) prior to analysis.
The following HPLC fluorescence detector conditions were applied: Column: knitted reaction coil L x I.D. 20mx 0.25mm, volume 1.0mL SUPELCO, ambient temperature; injection volume: 10 micro L; flow: 1.5 mL/min; isocratic 2min (A: 0.15M sodium chloride, 0.05 M L-histidine, pH = 6, 5%(v/v) acetonitrile, 5 micro M N-phenyl-1-naphtylamine (NPN), 15 ppm Brij® 35); FLD: lambda excitation = 350 nm, lambda emission = 420 nm, data mode: emission.
Quantification of each sample type was performed by using 10% T0 samples for preparation of an external calibration curve from 0.02% to 0.06% PS.
Empower 2 was used as software for quantification.
The assay is based on the uptake of the fluorescent dye NPN by surfactant micelles using flow injection analysis and subsequent fluorescence detection. The dye is present in the mobile phase. In the lipophilic surrounding in the inside of the micelles the fluorescent signal is 10-fold higher than in aqueous mobile phase. Therefore, the concentration of polysorbate can be measured according to the formation of micelles and the uptake of the dye by the subsequent increase of the signal intensity.

A short description of data set [3]: LC-UV-MS quantification of 4HNE in PS80 solutions after storage. As to conditions: 10% PS80; Air; 100-fold diluted; RL 50 micro M. On the procedure: as §1, with “cap. […]” for “cap.”
LC-UV-MS was used to quantify 4HNE levels in solutions of 10% PS80 (w/v) ± 0.02% (w/v) of the antioxidants BHT or BHA. […]
Quantification of 4HNE was achieved by integration of the LC-UV signals (lambda = 220 nm) and using a calibration curve obtained from the integrated LC-UV signals (lambda = 220 nm) of the external reference 4HNE. As a reference standard aqueous 4HNE solutions with concentrations between 0.05 ppm and 1 ppm were prepared and directly analyzed by LC-UV-MS. […]

Data set [4] in a line: HS-GC-MS quantification of headspace hexanal in PS80 solutions after storage. As to conditions: 10% PS80, RL of 100 ppb. On the procedure:
as §1, §2
GC-MS was used to quantify headspace hexanal levels for solutions of 10% PS (w/v) ± 0.02% (w/v) of the antioxidants BHT or BHA.
The following HS-GC-MS conditions were applied: Headspace oven: 10 min at 80°C, Column: Agilent HP-5MS, 30 m x 250 micro M x 0.25 micro M; GC oven: 3 min at 35°C, then 20°C/min to 320°C, then 10 min at 320°C; column flow: 1.3 mL/min; MS: Full scan, m/z = 35 - 300. As a reference standard aqueous toluene solutions with concentrations between 0.1 ppm and 1 ppm in 10 mL H2O were prepared and directly analyzed by HS-GC-MS.
1 mL of each sample was transferred into a headspace vial with a volume of 20 mL, closed, and analyzed directly.
Quantification was achieved by integration of the HS-GC-MS signals (TIC) and using a calibration curve obtained from the integrated HS-GC-MS signals (TIC) of the external reference toluene.
Tentative identification of degradants was performed by comparing the mass spectrum of each GC-MS signal against the NIST14 standard reference database.
The degradant most consistently identified by HS-GC-MS to show a value above the RL of 100 ppb was hexanal.

Structures are written as SMILES.

For `COc1ccc(O)c(C(C)(C)C)c1` [BHA, butylated hydroxyanisole], the “X = calculated fatty acid concentration in ppb, Lauric acid” value in data set [1] (PS20 - 10%, Air, RL 50000ppb) is given as “below 200000 ppb”. Besides, in data set [1] (PS20 - 10%, Air, RL 50000ppb), the “X = calculated fatty acid concentration in ppb, Myristic acid” value was “around 50000 ppb”. Besides, the “X = calculated fatty acid concentration in ppb, Oleic acid” value in data set [1] (PS80 - 10%, Air, RL 50000ppb) is on record as “around 200000 ppb”. Further, the “X = calculated fatty acid concentration in ppb, Stearic acid” value in data set [1] (PS80 - 10%, Air, RL 50000ppb) is on record as “around 60000 ppb”. Moreover, the “X= calculated concentration in % of the average of 2 injections (polysorbate)” value is recorded as approximately 0.04% in data set [2] (PS20 - 10%, Air); approximately 0.04% in data set [2] (PS80 - 0.1%, H2O2, RL 0.02%); approximately 0.04% in data set [2] (PS80 - 10%, Air, RL 0.02%). Also, in data set [3], the 4HNE measured was less than 50 micro M. Also, the “hexanal (headspace)” value in data set [4] (Air), in data set [4] (H2O2) and in data set [4] (T0) was “no hexanal could be detected” each time.

Consider `Cc1cc(C(C)(C)C)c(O)c(C(C)(C)C)c1` [BHT, butylated hydroxytoluene], for which the “X = calculated fatty acid concentration in ppb, Lauric acid” value in data set [1] (7 weeks, 0.02 % (w/v)) is reported as “below 200000 ppb”. Besides, the “X = calculated fatty acid concentration in ppb, Myristic acid” value in data set [1] (7 weeks, 0.02 % (w/v)) is given as “around 50000 ppb”. Further, the “X = calculated fatty acid concentration in ppb, Oleic acid” value in data set [1] (7 weeks, 0.02 % (w/v)) was “around 100000 ppb”. Also, the “X = calculated fatty acid concentration in ppb, Stearic acid” value in data set [1] (7 weeks, 0.02 % (w/v)) is “around 60000 ppb”. For the same molecule, the “X= calculated concentration in % of the average of 2 injections (polysorbate)” value in data set [2] (PS20 - 10%, Air) is approximately 0.04%; in data set [2] (PS80 - 0.1%, H2O2, RL 0.02%), approximately 0.04%; in data set [2] (PS80 - 10%, Air, RL 0.02%), approximately 0.04%. The molecule further had a 4HNE measured in data set [3] of less than 50 micro M. In addition, the “hexanal (headspace)” value in data set [4] (Air), in data set [4] (H2O2) and in data set [4] (T0) was “no hexanal could be detected” throughout.
